# Patent publication US7468391B2, “Methods for treating retinoid responsive disorders using selective inhibitors of CYP26A and CYP26B” (Allergan, Inc., priority 2003, dated 2008)
# What was measured:
# CYP26A (P450RAI-1) = target: T1, CYP26A (P450RAI-1) (Homo sapiens, UniProt O43174); experiment: Cell-based inhibition of RA metabolism in CYP26A stably transfected HeLa cells; conditions: stably transfected HeLa cells, [3H]-RA, 3 hours at 37° C.; read-out: P450RAI-1 Whole cell IC50
# T1 construct: expressed in transfected cells; host or cells: HeLa
# T1 sequence (O43174 1-497): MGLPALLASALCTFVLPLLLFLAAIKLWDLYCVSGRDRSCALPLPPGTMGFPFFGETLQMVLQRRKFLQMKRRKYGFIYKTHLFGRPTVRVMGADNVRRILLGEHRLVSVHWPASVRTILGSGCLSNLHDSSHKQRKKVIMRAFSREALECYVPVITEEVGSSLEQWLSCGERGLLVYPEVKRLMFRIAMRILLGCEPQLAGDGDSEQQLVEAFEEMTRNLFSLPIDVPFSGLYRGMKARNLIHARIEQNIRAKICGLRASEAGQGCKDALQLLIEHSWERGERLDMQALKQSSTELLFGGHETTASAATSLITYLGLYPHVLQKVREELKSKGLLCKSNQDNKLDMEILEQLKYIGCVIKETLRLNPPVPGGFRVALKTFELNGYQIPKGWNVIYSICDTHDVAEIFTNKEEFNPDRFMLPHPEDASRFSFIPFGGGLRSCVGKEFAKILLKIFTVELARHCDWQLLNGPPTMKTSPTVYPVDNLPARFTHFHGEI
# Description: (§1) In brief, CYP26A or CYP26B can be stably transfected into HeLa cells. Exponentially growing cells are harvested by incubating in trypsin. Cells are then washed and plated in a 48-well plate at 5×10^5 cells in 0.2 ml MEM medium containing 10% FBS and 0.05 μCi [^3H]-RA in the presence or absence of increasing concentrations of the test compounds. The compounds are diluted in 100% DMSO and then added in triplicate wells at either 10, 1 or 0.1 μM final concentration. As a positive control for RA metabolism inhibition, cells are also incubated with ketoconazole at 100, 10 and 1 μM. Cells are incubated for 3 hours at 37 degrees C. The retinoids are then extracted using the procedure of Bligh et al., Canadian Journal of Biochemistry 37: 911-917 (1959), modified by using methylenechloride instead of chloroform. This publication by Bligh et al., is specifically incorporated herein by reference. The water soluble radioactivity is quantified using a β scintillation counter, and IC50 values are determined.
# (§2) CYP26A and CYP26B stably transfected HeLa cells were maintained in 100 mm tissue culture dishes in MEM medium containing 10% FBS and 100 μg/ml hygromycin.
# (§3) Exponentially growing cells were harvested by incubating in trypsin. Cells were then washed with 1×PBS and plated in a 48-well plate at 5×10^5 cells in 0.2 ml MEM medium containing 10% FBS and 0.05 μCi [^3H]-RA in the presence or absence of increasing concentrations of the test compounds. The compounds were diluted in 100% DMSO and then added to triplicate wells at final concentrations of 10, 1 or 0.1 μM. As a positive control for RA metabolism inhibition, cells were also incubated with ketoconazole at 100, 10 and 1 μM. Cells were incubated for 3 hours at 37° C. The retinoids were then extracted using a modified Bligh and Dyer procedure (Bligh and Dyer, supra (1959)), in which methylene-chloride, as opposed to chloroform, was used, and the aqueous soluble radioactivity quantified using a β-scintillation counter. ID50 values represent the concentration of inhibitor required to inhibit RA metabolism by 50 percent and were derived manually from log-transformed data.
# RAR γ = target: T2, RAR γ (Homo sapiens, UniProt P13631); experiment: RAR γ Kd; format: binding; conditions: last item of cell EC50/(EFFICACY)/Kd
# T2 sequence (P13631 1-454): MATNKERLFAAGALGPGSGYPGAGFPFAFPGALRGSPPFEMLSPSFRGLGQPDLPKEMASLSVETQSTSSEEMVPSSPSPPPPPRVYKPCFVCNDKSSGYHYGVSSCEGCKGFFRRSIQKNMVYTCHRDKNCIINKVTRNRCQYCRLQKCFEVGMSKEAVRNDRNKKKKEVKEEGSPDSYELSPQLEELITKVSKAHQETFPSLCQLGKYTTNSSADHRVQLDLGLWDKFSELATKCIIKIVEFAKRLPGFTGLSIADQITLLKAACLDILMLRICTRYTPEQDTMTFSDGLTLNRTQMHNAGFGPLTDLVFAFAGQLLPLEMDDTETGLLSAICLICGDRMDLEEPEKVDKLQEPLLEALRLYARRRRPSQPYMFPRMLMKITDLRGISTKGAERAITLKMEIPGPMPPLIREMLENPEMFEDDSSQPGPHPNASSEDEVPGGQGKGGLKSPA
# RAR β = target: T3, RAR β (Homo sapiens, UniProt P10826); experiment: RAR β Kd; format: binding; conditions: last item of cell EC50/(EFFICACY)/Kd
# T3 sequence (P10826 1-455): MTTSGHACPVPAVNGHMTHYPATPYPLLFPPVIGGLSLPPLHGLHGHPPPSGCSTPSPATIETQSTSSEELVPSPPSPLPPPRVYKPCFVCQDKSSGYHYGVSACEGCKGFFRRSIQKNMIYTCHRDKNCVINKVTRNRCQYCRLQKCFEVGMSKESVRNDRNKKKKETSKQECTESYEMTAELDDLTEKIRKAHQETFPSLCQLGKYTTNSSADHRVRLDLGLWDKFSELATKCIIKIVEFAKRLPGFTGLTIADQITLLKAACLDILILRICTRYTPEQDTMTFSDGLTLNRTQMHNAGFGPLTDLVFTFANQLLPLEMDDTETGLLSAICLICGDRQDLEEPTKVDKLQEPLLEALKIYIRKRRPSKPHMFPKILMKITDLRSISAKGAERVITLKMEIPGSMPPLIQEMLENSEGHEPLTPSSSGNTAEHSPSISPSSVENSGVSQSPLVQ
# CYP26B (P450RAI-2) = target: T4, CYP26B (P450RAI-2) (Homo sapiens, UniProt Q9NR63); experiment: Cell-based inhibition of RA metabolism in CYP26B stably transfected HeLa cells; conditions: stably transfected HeLa cells, [3H]-RA, 3 hours at 37° C.; read-out: P450RAI-2 Whole cell IC50
# T4 construct: expressed in transfected cells; host or cells: HeLa
# T4 sequence (Q9NR63 1-512): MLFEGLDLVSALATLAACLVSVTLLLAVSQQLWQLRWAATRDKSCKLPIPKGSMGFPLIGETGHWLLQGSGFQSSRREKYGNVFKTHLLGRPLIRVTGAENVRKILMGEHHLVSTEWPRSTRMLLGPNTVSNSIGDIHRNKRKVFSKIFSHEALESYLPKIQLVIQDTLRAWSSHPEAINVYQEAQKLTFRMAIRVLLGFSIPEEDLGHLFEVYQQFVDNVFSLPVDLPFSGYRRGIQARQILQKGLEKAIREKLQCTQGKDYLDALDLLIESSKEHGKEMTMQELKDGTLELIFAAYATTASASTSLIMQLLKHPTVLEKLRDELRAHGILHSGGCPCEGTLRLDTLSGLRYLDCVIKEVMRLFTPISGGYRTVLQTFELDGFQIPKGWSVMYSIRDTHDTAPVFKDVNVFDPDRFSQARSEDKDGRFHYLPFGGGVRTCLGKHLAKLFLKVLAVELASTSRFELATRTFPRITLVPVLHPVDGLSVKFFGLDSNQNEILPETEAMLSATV
# Description: as §1, §2, §3
# RAR α = target: T5, RAR α (Homo sapiens, UniProt P10276); experiment: RAR α Kd; format: binding; conditions: last item of cell EC50/(EFFICACY)/Kd
# T5 sequence (P10276 1-462): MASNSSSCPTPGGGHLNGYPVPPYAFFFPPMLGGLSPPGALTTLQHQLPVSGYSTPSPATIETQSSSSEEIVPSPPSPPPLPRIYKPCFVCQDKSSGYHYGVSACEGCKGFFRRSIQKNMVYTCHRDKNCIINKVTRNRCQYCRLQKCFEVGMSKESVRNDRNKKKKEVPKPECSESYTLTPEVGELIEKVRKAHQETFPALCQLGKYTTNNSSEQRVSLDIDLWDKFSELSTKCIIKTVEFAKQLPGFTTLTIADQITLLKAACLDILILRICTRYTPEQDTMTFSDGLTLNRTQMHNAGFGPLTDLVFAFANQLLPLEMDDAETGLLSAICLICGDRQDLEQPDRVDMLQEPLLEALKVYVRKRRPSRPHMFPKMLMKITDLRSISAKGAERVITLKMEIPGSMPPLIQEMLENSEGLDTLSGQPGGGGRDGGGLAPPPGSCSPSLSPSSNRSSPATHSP
SMILES,IC50 (CYP26A (P450RAI-1)) [µM],Kd (RAR γ) [µM],Kd (RAR β) [µM],IC50 (CYP26B (P450RAI-2)) [µM],Kd (RAR α) [µM]
"CC(C(=O)O)c1ccc(C#Cc2cc(O)c3c(c2)C(C)(C)CC(C)(C)O3)cc1 (centres unmarked) [Compound 11, 2-[4-(8-Hydroxy-2,2,4,4-tetramethyl-chroman-6-ylethynyl)-phenyl]-propionic acid]",0.07,> 10,> 10,3,> 10
"CC1(C)CC(C)(C)c2cc(C#Cc3ccc(C(C)(C)C(=O)O)cc3)cc(O)c2O1 [Compound 12, 2-[4-(8-Hydroxy-2,2,4,4-tetramethyl-chroman-6-ylethynyl)-phenyl]-2-methyl-propionic acid]",0.16,> 10,> 10,> 10,> 10
"CC(C)N(Cc1cc(C(=O)Oc2ccc(CC(=O)O)cc2)cc2c1OC(C)(C)CC2(C)C)C1CC1 [Compound 17, 8-[(Cyclopropyl-isopropyl-amino)-methyl]-2,2,4,4-tetramethyl-chroman-6-carboxylic acid 4-carboxymethyl-phenyl ester]",2.5,–,–,> 10,–
"CC(C)OC(=O)c1cc(C#Cc2ccc(CC(=O)O)cc2)cc2c1OC(C)(C)CC2(C)C [Compound 18, 6-(4-Carboxymethyl-phenylethynyl)-2,2,4,4-tetramethyl-chroman-8-carboxylic acid isopropyl ester]",0.4,–,–,> 10,–
"CC(C)(C)COC(=O)c1cc(C#Cc2ccc(CC(=O)O)cc2)cc2c1OC(C)(C)CC2(C)C [Compound 19, 6-(4-Carboxymethyl-phenylethynyl)-2,2,4,4-tetramethyl-chroman-8-carboxylic acid 2,2-dimethylpropyl ester]",7,–,–,> 10,–
"CC(C)(C)OC(=O)c1cc(C#Cc2ccc(CC(=O)O)cc2)cc2c1OC(C)(C)CC2(C)C [Compound 20, 6-(4-Carboxymethyl-phenylethynyl)-2,2,4,4-tetramethyl-chroman-8-carboxylic acid tert-butyl ester]",2.9,–,–,> 10,–

# Second part, the molecule after the results:
IC50 (CYP26A (P450RAI-1)) [µM],Kd (RAR γ) [µM],Kd (RAR β) [µM],IC50 (CYP26B (P450RAI-2)) [µM],Kd (RAR α) [µM],SMILES
0.009,3.49,3.02,8,2.09,"CC(C(=O)O)c1ccc(C#Cc2cc(C3CC3)c3c(c2)C(C)(C)CC2(CC2)O3)cc1 (centres unmarked) [Compound 1, 2-{4-[(8-Cyclopropyl-3,4-dihydro-4,4-dimethylspiro[2H-1-benzopyran-2,1′-cyclopropane]-6-yl)ethynyl]-phenyl}-propionic acid]"
0.03,5.58,3.44,> 10,0.558,"CC1(C)CC2(CC2)Oc2c(C3CC3)cc(C#Cc3ccc(C(C)(C)C(=O)O)cc3)cc21 [Compound 2, 2-{4-[(8-Cyclopropyl-3,4-dihydro-4,4-dimethylspiro[2H-1-benzopyran-2,1′-cyclopropane]-6-yl)ethynyl]-phenyl}-2-methyl-propionic acid]"
0.06,> 10,> 10,4,3.41,"CN(Cc1cc(C#Cc2ccc(CC(=O)O)cc2)cc2c1OC(C)(C)CC2(C)C)C1CC1 [Compound 6, (4-{8-[(Cyclopropyl-methyl-amino)-methyl]-2,2,4,4-tetramethyl-chroman-6-ylethynyl}phenyl)-acetic acid]"
0.04,> 10,> 10,2,> 10,"CN(Cc1cc(C#Cc2ccc(CC(=O)O)c(F)c2)cc2c1OC(C)(C)CC2(C)C)C1CC1 [Compound 7, (4-{8-[(Cyclopropyl-methyl-amino)-methyl]-2,2,4,4-tetramethyl-chroman-6-ylethynyl}-2-fluoro-phenyl)-acetic acid]"
0.12,> 10,> 10,> 10,> 10,"CN(Cc1cc(C#Cc2ccc(C(C)(C)C(=O)O)cc2)cc2c1OC(C)(C)CC2(C)C)C1CC1 [Compound 9, 2-(4-{8-[(Cyclopropyl-methyl-amino)-methyl]-2,2,4,4-tetramethyl-chroman-6-ylethynyl}-phenyl)-2-methyl-propionic acid]"
0.05,> 10,> 10,–,5.28,"CC(C(=O)O)c1ccc(C#Cc2cc(C3CC3)c3c(c2)C(C)(C)CCC3N(C)C2CC2)cc1 (centres unmarked) [Compound 49, 2-{4-[4-Cyclopropyl-5-(cyclopropyl-methyl-amino)-8,8-dimethyl-5,6,7,8-tetrahydro-naphthalen-2-ylethynyl]-phenyl}-propionic acid]"
